How the values were obtained:
[1] = biological target: T1, Adenosine receptor A1 (Homo sapiens) (UniProt P30542); assay: Displacement of [3H]R-PIA from recombinant human A1AR expressed in HEK293 cell membranes at 10 uM measured after 60 mins by liquid scintillation counting method relative to control
T1 sequence (whole entry): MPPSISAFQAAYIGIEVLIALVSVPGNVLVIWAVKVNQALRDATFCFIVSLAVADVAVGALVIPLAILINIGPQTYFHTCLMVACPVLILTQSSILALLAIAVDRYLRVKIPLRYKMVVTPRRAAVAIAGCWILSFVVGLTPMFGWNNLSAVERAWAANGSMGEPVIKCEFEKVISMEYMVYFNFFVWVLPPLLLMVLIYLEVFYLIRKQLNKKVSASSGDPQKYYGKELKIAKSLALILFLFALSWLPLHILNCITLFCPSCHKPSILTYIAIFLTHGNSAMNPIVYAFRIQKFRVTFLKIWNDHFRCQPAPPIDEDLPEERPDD

Adenosine receptor A2a = Adenosine receptor A2a (Homo sapiens, UniProt P29274); assay: Displacement of [3H]CGS21680 from recombinant human A2AAR expressed in HEK293 cell membranes at 10 uM measured after 60 mins by liquid scintillation counting method relative to control
Adenosine receptor A3 [2] = biological target: T2, Adenosine receptor A3 (Mus musculus, UniProt Q61618); assay: biochemical
T2 sequence (Q61618 whole entry): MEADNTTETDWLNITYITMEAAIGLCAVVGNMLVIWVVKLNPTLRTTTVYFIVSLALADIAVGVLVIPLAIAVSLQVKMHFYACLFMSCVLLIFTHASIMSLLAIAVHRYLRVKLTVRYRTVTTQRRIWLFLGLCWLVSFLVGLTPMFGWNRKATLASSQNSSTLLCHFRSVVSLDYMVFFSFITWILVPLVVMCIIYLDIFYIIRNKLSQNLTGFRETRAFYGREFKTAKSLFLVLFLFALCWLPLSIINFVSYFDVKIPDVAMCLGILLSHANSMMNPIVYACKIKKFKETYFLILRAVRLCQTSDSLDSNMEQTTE

Adenosine receptor A3 [3] = biological target: T3, Adenosine receptor A3 (Homo sapiens, UniProt P0DMS8); assay: biochemical
T3 sequence (P0DMS8 whole entry): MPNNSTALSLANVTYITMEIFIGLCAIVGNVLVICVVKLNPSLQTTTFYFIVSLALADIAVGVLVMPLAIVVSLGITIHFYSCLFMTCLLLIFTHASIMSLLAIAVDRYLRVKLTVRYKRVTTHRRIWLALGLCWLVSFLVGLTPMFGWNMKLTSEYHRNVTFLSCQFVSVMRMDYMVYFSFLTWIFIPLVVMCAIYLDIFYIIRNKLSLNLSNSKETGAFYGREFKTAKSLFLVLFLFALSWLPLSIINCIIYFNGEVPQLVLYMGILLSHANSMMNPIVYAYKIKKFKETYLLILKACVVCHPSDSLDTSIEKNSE

Adenosine receptor A1 [4] = biological target: T4, Adenosine receptor A1 (Homo sapiens, UniProt P30542); assay: Displacement of [3H]R-PIA from recombinant human A1AR expressed in HEK293 cell membranes measured after 60 mins by liquid scintillation counting method
T4 sequence (P30542 whole entry): T1 sequence (whole entry)

[5] = biological target: T5, Adenosine receptor A3 (Homo sapiens) (UniProt P0DMS8); assay: Partial agonist activity at recombinant human A3AR expressed in HEK293 cells assessed as inhibition of forskolin-stimulated cAMP accumulation by measuring residual cAMP level measured after 30 mins in presence of A2BAR blocker PSB-603 by Glo-sensor assay relative to control; assay type: functional, cell-based
T5 sequence (whole entry): T3 sequence (P0DMS8 whole entry)

Adenosine receptor A1 [6] = biological target: T6, Adenosine receptor A1 (Mus musculus, UniProt Q60612); assay: Displacement of [3H]R-PIA from recombinant mouse A1AR expressed in HEK293 cell membranes measured after 60 mins by liquid scintillation counting method
T6 sequence (Q60612 whole entry): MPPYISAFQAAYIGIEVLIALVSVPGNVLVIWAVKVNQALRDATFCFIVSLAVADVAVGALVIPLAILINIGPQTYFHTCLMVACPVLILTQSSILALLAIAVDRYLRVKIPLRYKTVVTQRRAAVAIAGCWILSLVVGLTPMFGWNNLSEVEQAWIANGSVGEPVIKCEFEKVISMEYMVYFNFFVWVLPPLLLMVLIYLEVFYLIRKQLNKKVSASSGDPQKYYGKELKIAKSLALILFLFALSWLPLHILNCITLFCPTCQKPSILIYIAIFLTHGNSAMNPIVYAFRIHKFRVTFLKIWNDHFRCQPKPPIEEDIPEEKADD

[7] = biological target: T5, Adenosine receptor A3 (Homo sapiens); assay: Partial agonist activity at recombinant human A3AR expressed in HEK293 cells assessed as inhibition of forskolin-stimulated cAMP accumulation at 10 uM measured after 30 mins in presence of A2BAR blocker PSB-603 by Glo-sensor assay relative to Cl-IB-MECA; assay type: functional, cell-based
Adenosine receptor A3 [8] = biological target: T3, Adenosine receptor A3; assay: Partial agonist activity at recombinant human A3AR expressed in HEK293 cells assessed as inhibition of forskolin-stimulated cAMP accumulation measured after 30 mins in presence of A2BAR blocker PSB-603 by Glo-sensor assay; assay type: functional, cell-based
[9] = biological target: T7, Adenosine receptor A3 (Mus musculus) (UniProt Q61618); assay: Partial agonist activity at recombinant mouse A3AR expressed in HEK293 cell membranes assessed as stimulation of [35S]GTPgammaS binding measured after 2 hrs in presence of A2BAR blocker PSB-603 by liquid scintillation counting analysis relative to adenosine-5'-Nethyluronamide; assay type: functional
T7 sequence (whole entry): T2 sequence (Q61618 whole entry)

Translocator protein = Translocator protein (Homo sapiens, UniProt P30536); assay: Inhibition of TSPO (unknown origin)
Chain of Translocator protein (P30536 whole entry): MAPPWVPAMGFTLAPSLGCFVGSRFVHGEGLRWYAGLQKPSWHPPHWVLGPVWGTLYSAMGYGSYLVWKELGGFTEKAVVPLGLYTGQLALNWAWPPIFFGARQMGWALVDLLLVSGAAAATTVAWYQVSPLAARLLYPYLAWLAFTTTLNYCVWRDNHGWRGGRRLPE

Chain of Adenosine receptor A2a (P29274 whole entry): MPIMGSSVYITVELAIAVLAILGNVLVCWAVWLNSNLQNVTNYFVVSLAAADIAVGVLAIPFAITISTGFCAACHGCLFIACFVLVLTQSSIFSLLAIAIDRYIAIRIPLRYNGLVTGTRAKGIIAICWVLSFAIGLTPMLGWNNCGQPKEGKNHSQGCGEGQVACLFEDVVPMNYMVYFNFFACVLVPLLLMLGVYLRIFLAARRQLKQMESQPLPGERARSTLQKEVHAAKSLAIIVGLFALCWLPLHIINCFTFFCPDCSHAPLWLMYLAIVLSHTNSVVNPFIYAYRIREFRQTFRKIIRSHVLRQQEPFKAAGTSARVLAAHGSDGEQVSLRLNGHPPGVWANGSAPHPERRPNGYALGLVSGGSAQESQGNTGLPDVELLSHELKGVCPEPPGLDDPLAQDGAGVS

Row | SMILES | inhibition [1] [%] | inhibition (Adenosine receptor A2a) [%] | Ki (Adenosine receptor A3 [2]) [nM] | Ki (Adenosine receptor A3 [3]) [nM] | Ki (Adenosine receptor A1 [4]) [nM] | Emax [5] [%] | Ki (Adenosine receptor A1 [6]) [nM] | Emax [7] [%] | EC50 (Adenosine receptor A3 [8]) [nM] | Emax [9] [%] | Ki (Translocator protein) [nM]
1 | Nc1ccc(CCNc2nc(C#Cc3ccccc3)nc3c2ncn3[C@H]2[C@H](O)[C@H](O)[C@@H]3C[C@@H]32)cc1 | 30 | 26 | 60.4 | 14.2 |  |  |  |  |  |  | 
2 | O[C@@H]1[C@H](O)[C@@H]2C[C@@H]2[C@H]1n1cnc2c(N[C@H]3C[C@@H]3c3ccccc3)nc(C#Cc3ccc(Cl)s3)nc21 | 32 | 44 | 1140 | 80.5 |  |  |  |  |  |  | 
3 | COc1cc(CCNc2nc(C#Cc3ccc(F)c(F)c3)nc3c2ncn3[C@H]2[C@H](O)[C@H](O)[C@@H]3C[C@@H]32)ccc1O |  | 33 | 75 | 12.8 | 341 |  |  |  |  |  | 
4 | COc1cc(CCNc2nc(C#Cc3ccc(Br)s3)nc3c2ncn3[C@H]2[C@H](O)[C@H](O)[C@@H]3C[C@@H]32)ccc1O | 15 | 38 | 26 | 3.24 |  | 61 | 2840 | 50 | 692 |  | 
5 | O[C@@H]1[C@H](O)[C@@H]2C[C@@H]2[C@H]1n1cnc2c(NCCc3cccc(Cl)c3)nc(C#Cc3ccc(Cl)s3)nc21 | 39 | 59 | 531 | 58.4 |  |  |  |  |  |  | 
6 | COc1cc(CCNc2nc(C#Cc3ccc(F)cc3)nc3c2ncn3[C@H]2[C@H](O)[C@H](O)[C@@H]3C[C@@H]32)ccc1O | 39 | 51 | 54.4 | 6.51 |  |  |  |  |  |  | 
7 | O[C@@H]1[C@H](O)[C@@H]2C[C@@H]2[C@H]1n1cnc2c(NCCc3ccccc3)nc(C#Cc3ccccc3Cl)nc21 |  |  | 980 |  |  |  |  |  |  |  | 
8 | COc1cc(CCNc2nc(C#Cc3cccc(F)c3)nc3c2ncn3[C@H]2[C@H](O)[C@H](O)[C@@H]3C[C@@H]32)ccc1O | 38 | 51 | 72.2 | 4.63 |  |  |  |  |  |  | 
9 | Oc1ccc(CCNc2nc(C#Cc3ccccc3)nc3c2ncn3[C@H]2[C@H](O)[C@H](O)[C@@H]3C[C@@H]32)cc1F | 44 | 17 | 61.6 | 9.03 |  |  |  |  |  |  | 
10 | CCNC(=O)[C@H]1O[C@@H](n2cnc3c(N)ncnc32)[C@H](O)[C@@H]1O |  |  |  |  |  |  |  |  |  | 100 | 
11 | O[C@@H]1[C@H](O)[C@@H]2C[C@@H]2[C@H]1n1cnc2c(NCCc3cccc(F)c3)nc(C#Cc3ccc(F)s3)nc21 |  | 48 | 404 | 55.8 | 2290 |  |  |  |  |  | 
12 | Oc1ccc(CCNc2nc(C#Cc3ccccc3)nc3c2ncn3[C@H]2[C@H](O)[C@H](O)[C@@H]3C[C@@H]32)cc1 | 29 | 32 | 76.4 | 45.6 |  |  |  |  |  |  | 
13 | O[C@@H]1[C@H](O)[C@@H]2C[C@@H]2[C@H]1n1cnc2c(NCCc3cccc(F)c3)nc(C#Cc3ccc(Cl)s3)nc21 | 31 | 55 | 488 | 42.2 |  |  |  |  |  |  | 200
14 | O[C@@H]1[C@H](O)[C@@H]2C[C@@H]2[C@H]1n1cnc2c(NCCc3ccccc3)nc(C#Cc3ccc(Cl)s3)nc21 | 10 | 46 | 995 | 8.17 |  | 37.6 |  | 80 | 2410 |  | 
15 | COc1cc(CCNc2nc(C#Cc3ccc(Cl)s3)nc3c2ncn3[C@H]2[C@H](O)[C@H](O)[C@@H]3C[C@@H]32)ccc1O |  | 38 | 74.7 | 9.52 | 649 |  |  |  |  |  | 
16 | COc1cc(CCNc2nc(I)nc3c2ncn3[C@H]2[C@H](O)[C@H](O)[C@@H]3C[C@@H]32)ccc1O | 50 | 49 | 92.5 | 9.1 |  |  |  |  |  |  | 
17 | Cc1cccc(CCNc2nc(C#Cc3ccc(Cl)s3)nc3c2ncn3[C@H]2[C@H](O)[C@H](O)[C@@H]3C[C@@H]32)c1 | 29 | 50 | 675 | 106 |  |  |  |  |  |  | 
18 | Oc1ccc(CCNc2nc(C#Cc3ccccc3)nc3c2ncn3[C@H]2[C@H](O)[C@H](O)[C@@H]3C[C@@H]32)cc1O | 28 | 27 | 39.8 | 48.8 |  |  | 1420 |  |  |  | 
19 | O[C@@H]1[C@H](O)[C@@H]2C[C@@H]2[C@H]1n1cnc2c(NCCc3cccc(F)c3)nc(C#Cc3ccccc3)nc21 |  | 27 | 264 | 35.9 | 2680 |  |  |  |  |  | 
20 | O[C@@H]1[C@H](O)[C@@H]2C[C@@H]2[C@H]1n1cnc2c(NCCc3ccc(F)c(F)c3)nc(C#Cc3ccc(Cl)s3)nc21 | 28 | 57 | 2520 | 47.1 |  |  |  |  |  |  | 
21 | COc1ccc(CCNc2nc(C#Cc3ccccc3)nc3c2ncn3[C@H]2[C@H](O)[C@H](O)[C@@H]3C[C@@H]32)cc1O | 49 | 27 | 122 | 6.85 |  |  |  |  |  |  | 
22 | COc1cc(CCNc2nc(C#Cc3cccnc3)nc3c2ncn3[C@H]2[C@H](O)[C@H](O)[C@@H]3C[C@@H]32)ccc1O | 36 | 39 | 155 | 6.7 |  |  |  |  |  |  | 
23 | COc1ccc(CCNc2nc(C#Cc3ccccc3)nc3c2ncn3[C@H]2[C@H](O)[C@H](O)[C@@H]3C[C@@H]32)cc1OC |  | 28 | 331 | 16.3 | 208 |  |  |  |  |  | 

— ChEMBL document CHEMBL4402597, “Truncated (N)-Methanocarba Nucleosides as Partial Agonists at Mouse and Human A3 Adenosine Receptors: Affinity Enhancement by N6-(2-Phenylethyl) Substitution” (J Med Chem, 2020)
